The source made the active and inactive calls.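 The calls were made as follows: active = compounds curbing yeast growth with fitted half-effect dose at most twice their top tested dose; inconclusive = flat fit at 30 to 70% inhibition, or poor fit; inactive = the rest.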
Legend:
[1] = Candida glabrata glucose growth inhibition – glucose medium, OD600, dry powder, dose response (AID 602185); conditions: Candida glabrata growth in glucose, OD600, 48 h, stronger effect = lower value
[2] = system: Candida glabrata growth in glucose, OD600, 48 h; assay: as above

C/C(=N\NC(=O)c1cc2ccccc2cc1O)c1ccccn1
max activity, negative = growth inhibition ([1]; at 5 µM): 18.8% (inactive)

O=C(Nc1nc(-c2ccccn2)cs1)c1ccc(Br)s1
AC50 [2]: 8.64 µM

NC(=O)c1cccc(C(=O)Nc2nc(-c3ccc4c(c3)CCCC4)cs2)c1
max activity, negative = growth inhibition ([1]; at 2.6 µM): 14.1% (inactive)

Oc1c(CN2CCN(c3ccccc3)CC2)cc(Cl)c2cccnc12
max activity, negative = growth inhibition ([1]; at 0.35 µM): 12.9% (inactive)

Oc1c(CN2CCc3ccccc3C2)cc(Cl)c2cccnc12
max activity, negative = growth inhibition ([1]; at 10 µM): 15.2% (inactive)

O=C(Nc1nnc(-c2ccc3c(c2)CCCC3)o1)c1ccccc1
max activity, negative = growth inhibition ([1]; at 2.6 µM): -10.5% (inactive)

Cc1ccc(C(=O)Nc2nc(-c3ccccn3)cs2)cc1
max activity, negative = growth inhibition ([1]; at 19.5 µM): -34.8% (inactive)

O=C(Nc1nnc(-c2ccc3c(c2)CCCC3)o1)c1ccc(Cl)cc1Cl
max activity, negative = growth inhibition ([1]; at 0.16 µM): 21% (inactive)

Oc1c(C(c2ccc(Cl)cc2)N2CCCC2)ccc2cccnc12 (centres undefined)
max activity, negative = growth inhibition ([1]; at 1.2 µM): 12% (inactive)

CN1CCN(C(c2ccc(C(F)(F)F)cc2)c2ccc3cccnc3c2O)CC1 (centres undefined)
AC50 [2]: 2.18 µM

Cc1ccc(-c2nc3c(Cl)cc(Cl)cc3c(=O)n2O)cc1
AC50 [2]: 1.75 µM

O=C(Nc1nc(-c2ccccc2)cs1)c1ccc(Br)s1
max activity, negative = growth inhibition ([1]; at 0.3 µM): 11.1% (inactive)

O=C(Nc1nc(-c2ccccn2)cs1)c1ccccc1
max activity, negative = growth inhibition ([1]; at 19.5 µM): -14.7% (inactive)

Oc1c(C(c2ccccc2Cl)N2CCCCC2)ccc2cccnc12 (centres undefined)
max activity, negative = growth inhibition ([1]; at 19.5 µM): -24.3% (inactive)

O=C(Nc1nc(-c2ccccn2)cs1)c1ccc(Cl)s1
AC50 [2]: 9.57 µM

C=CCNC(=S)N/N=C(\C)c1ccccn1
AC50 [2]: 6.14 µM

Cc1cc(C)n(-c2nc3ccccc3c(=O)n2OCC#N)n1
max activity, negative = growth inhibition ([1]; at 19.5 µM): -17.9% (inactive)

O=C(Nc1nc(-c2ccc3c(c2)CCCC3)cs1)c1ccccc1
max activity, negative = growth inhibition ([1]; at 0.3 µM): 19.6% (inactive)

O=C(Oc1c(Cl)cc(Cl)c2cccnc12)c1ccco1
AC50 [2]: 1.14 µM

CCOC(=O)N1C(=O)C2(CCCCC2)N(c2ccc(C)cc2)C1=S
max activity, negative = growth inhibition ([1]; at 0.08 µM): 13.5% (inactive)

Cc1ccc(C(=O)Nc2nnc(-c3ccccc3)o2)cc1C
max activity, negative = growth inhibition ([1]; at 0.16 µM): 18.7% (inactive)

O=C(NNC(=S)Nc1ccc(Cl)c(Cl)c1)c1ccccn1
AC50 [2]: 10.1 µM

COc1ccc(-c2nnc(NC(=O)c3ccc(S(=O)(=O)N4CCCc5ccccc54)cc3)o2)cc1
max activity, negative = growth inhibition ([1]; at 0.3 µM): 12.6% (inactive)

CCCC(=O)NC(c1cccs1)c1cc(Cl)c2cccnc2c1O (centres undefined)
AC50 [2]: 3.27 µM
